Measured values as given in ChEMBL document CHEMBL5729128, “Phenyl and pyridinyl substituted imidazoles as modulators of RORγT” (2022).

Target: T1, Nuclear receptor ROR-gamma (Homo sapiens, UniProt P51449)
T1 sequence (P51449 whole entry): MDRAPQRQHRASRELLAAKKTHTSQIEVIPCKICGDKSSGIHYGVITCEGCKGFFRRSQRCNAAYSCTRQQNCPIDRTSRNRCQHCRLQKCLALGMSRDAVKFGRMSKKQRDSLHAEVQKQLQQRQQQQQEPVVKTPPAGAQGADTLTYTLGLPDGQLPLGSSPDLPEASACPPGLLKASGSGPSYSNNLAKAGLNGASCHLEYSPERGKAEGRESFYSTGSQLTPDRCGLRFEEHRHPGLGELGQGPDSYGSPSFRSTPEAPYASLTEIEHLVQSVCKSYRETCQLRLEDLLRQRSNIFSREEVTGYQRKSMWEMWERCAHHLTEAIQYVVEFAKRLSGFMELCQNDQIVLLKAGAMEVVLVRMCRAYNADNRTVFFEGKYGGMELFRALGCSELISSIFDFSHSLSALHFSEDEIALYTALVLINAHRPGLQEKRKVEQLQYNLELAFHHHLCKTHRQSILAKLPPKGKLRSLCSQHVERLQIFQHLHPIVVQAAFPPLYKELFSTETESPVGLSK
Test: Fluorescence Based Assay: ThermoFluor is a fluorescence based assay that estimates ligand binding affinities by measuring the effect of a ligand on protein thermal stability (Pantoliano, M. W., Petrella, E. C., Kwasnoski, J. D., Lobanov, V. S., Myslik, J., Graf, E., Carver, T., Asel, E., Springer, B. A., Lane, P., and Salemme, F. R. (2001) High-density miniaturized thermal shift assays as a general strategy for drug discovery. J Biomol Screen 6, 429-40, and Matulis, D., Kranz, J. K., Salemme, F. R., and Todd, M. J. (2005) Thermodynamic stability of carbonic anhydrase: measurements of binding affinity and stoichiometry using ThermoFluor. Biochemistry 44, 5258-66). This approach is applicable to a wide variety of systems, and rigorous in theoretical interpretation through quantitation of equilibrium binding constants (KD).

Row | SMILES | Kd [nM]
1 | CCc1nc(C(=O)NC[C@]2(O)CC[C@@H](S(C)(=O)=O)CC2)c(C)n1-c1ncc(CC(C)(C)C(F)(F)F)cc1OC(F)F | 23
2 | CCc1nc(C(=O)NC[C@H]2CC[C@H](S(C)(=O)=O)CC2)c(Cl)n1-c1ncc(CCCC(F)(F)F)cc1OC(F)F | 15
3 | CCc1nc(C(=O)NC[C@]2(O)CC[C@@H](S(C)(=O)=O)CC2)c(Cl)n1-c1ncc(CCCC(F)(F)F)cc1OC(F)F | 87
